In patent US4096259A, “Non-amphetaminic psychostimulating compositions of 1,4-disubstituted piperazines” (priority 1975, dated 1978):

Columns and labels:
[1] = system: mortality with pentetrazole in mice; assay: Potentiation of mortality with pentetrazole in mice; format: in vivo; settings: per os
[2] = Acute toxicity (LD50) in mice, per os; settings: mouse, in vivo, po
From the text: Acute toxicity was studied by determining the LD50 in mice, the derivatives being administered per os.

[3] = system: dog cardiovascular system; assay: Secondary action on the dog cardiovascular system, intravenous; format: in vivo; settings: intravenous administration
[4] = system: ptose with reserpine in mice; assay: Ptose antagonism with reserpine in mice; format: in vivo; settings: Mus musculus, po, per os
[5] = system: exploration response in mice; assay: Psychostimulating activity: increase of exploration response in mice (actimetry); format: in vivo; settings: Mus musculus, po, per os, dose which increases exploration response by 50%
From the text: The psychostimulating activity was studied by determining the dose which increases the exploration response in mice (actimetry) by 50% (ED50),according to the method described by BOISSIER J.R. and SIMON P. (Arc. Int. Pharmacolyn, 1965, 212-221158).

[6] = Group toxicity (LD50 grouped mice / LD50 isolated mice); settings: mouse, in vivo
[7] = system: sleep in mice; assay: Anti-sleep activity in mice; format: in vivo
[8] = system: aggressiveness in mice; assay: Aggressiveness in mice in the electric struggle test; format: in vivo; settings: Mus musculus, po, per os, read-out: increase in aggressiveness in the electric struggle test ED50
[9] = Chronic toxicity in rats, oral; format: in vivo; settings: 6 out of 7 days
[10] = system: neurotic depression, neurasthenia and school overwork; assay: Clinical test in neurotic depression, neurasthenia and school overwork; format: in vivo, adults; settings: 30 mg daily oral, one month
Protocol: (§1) By way of example, clinical tests were carried out on derivatives N° 5 and 21.
Derivative N° 5 was administered at a dose of 30 mg daily in three oral administrations of 10 mg to 6 adults treated for neurotic depression, neurasthenia and school overwork. The following results were obtained after treatment for one month: […]

[11] = Anorectic action in rats; format: in vivo
[12] = system: Guinea-pig ileum; assay: In vitro atropinic action on the Guinea-pig ileum; settings: Atropine sulfate = 1
From the text: (§2) Table V below gives, by way of example, the complementary pharmacological activities such as antiserotonin, adrenolytic and atropinic activities for derivatives N° 21, 23 and 33, the spasmolytic activity of which is the greatest for the rat isolated duodenum.

[13] = system: arteritis of the lower limbs, cerebral vascular sclerosis, sequelae of hemiplegia; assay: Clinical test in arteritis of the lower limbs, cerebral vascular sclerosis, sequelae of hemiplegia; format: in vivo, adults; settings: 15 mg/day oral, one month
Protocol: as §1

[14] = system: female rat uterus in oestrus; assay: In vitro anti-serotonin activity on the female rat uterus in oestrus; settings: Methysergide = 1
From the text: as §2

[15] = system: rat isolated duodenum; assay: In vitro papaverine spasmolytic activity: duodenum contractions in rats induced by barium chloride; settings: for Spasmolytic activity (papaverine hydrochloride = 1): in vitro, rat duodenum, barium chloride, relative to papaverine hydrochloride = 1
Protocol: The papaverine spasmolytic activity was measured "in vitro" by the concentration ratio: active principle/papaverine hydrochloride concentration, which reduces duodenum contractions in rats, induced by barium chloride, by 50% according to the method of POMARET J. C., SERGANT - ODY M., POURRIAS B. and HUGUET G. (Therapie, 1969, 24, 109-143).
as §2

[16] = system: paw vessels of the dog; assay: In vivo spasmolytic action on paw vessels of the dog; settings: papaverine hydrochloride = 1
From the text: as §2

[17] = system: rabbit isolated ear; assay: In vitro spasmolytic action on the rabbit isolated ear; settings: papaverine hydrochloride = 1
From the text: as §2

[18] = system: rabbit aorta; assay: In vitro spasmolytic action on the rabbit aorta; settings: papaverine hydrochloride = 1
From the text: as §2

[19] = system: Guinea-pig seminal vesicle; assay: In vitro adrenolytic action on the Guinea-pig seminal vesicle; settings: Yohimbine hydrochloride = 1
From the text: as §2

[20] = cerebral vascular sclerosis, 4 cases

Row | Structure (SMILES) | Potentiation of mortality with pentetrazole in mice ED50 [1] | LD50 [2] | secondary action on the dog cardiovascular system [3] | ED50 [4] | ED50 [5] | selectivity ratio [6] | Anti-sleep activity in mice [7] | In vitro atropinic action on the Guinea-pig ileum [12] | Spasmolytic activity (papaverine hydrochloride = 1) [15] | spasmolytic activity for the rat isolated duodenum (in words) [15] | In vivo spasmolytic action on paw vessels of the dog [16] | In vitro spasmolytic action on the rabbit isolated ear [17] | In vitro spasmolytic action on the rabbit aorta [18] | In vitro adrenolytic action on the Guinea-pig seminal vesicle [19] | other results
1 | O=C(O)CCN1CCN(CCOC(c2ccccc2)c2ccc(F)cc2)CC1 (stereo not drawn) [Derivative 5] | 160 mg/kg | 800 mg/kg | devoid of any secondary action | 100 mg/kg | 22 mg/kg | 0.6 | Nil |  |  |  |  |  |  |  | ED50 [8]: 6.5 mg/kg; chronic toxicity ([9]; oral, 80 mg/kg daily): low chronic toxicity; tolerance in chronic administration ([9]; oral, 80 mg/kg daily): well tolerated; presence of a psychostimulating action ([10]; 6 adults): 5 out of 6; Nil results, number of cases ([10]; neurasthenia (1 case)): 1 cases; Excellent results, number of cases ([10]; neurotic depression (2 cases)): 1 cases; Good results, number of cases ([10]; neurotic depression (2 cases)): 1 cases; Excellent results, number of cases ([10]; school overwork (3 cases)): 2 cases; Good results, number of cases ([10]; school overwork (3 cases)): 1 cases; anorectic action in rats [11]: absence of anorectic action
2 | CCOC(=O)CCN1CCN(CCOC(c2ccc(F)cc2)c2ccc(F)cc2)CC1.Cl.Cl [Derivative 21, 1-(ethoxycarbonylethyl)-4[2(4,4'-difluorobenzhydryloxy)-ethyl]piperazine dihydrochloride] | > 100 mg/kg | 750 mg/kg | devoid of any secondary action | 70 mg/kg | 30 mg/kg | 0.4 | Nil | > 0,01 | 8,5 | greatest | 30 | 1,5 | 5 | 4 | Improvement of the psychic state ([13]; arteritis of the lower limbs, 8 cases): 4 times; Improvement in intellectual activity [13, 20]: once; Improvement of the psychic state [13, 20]: twice; Improvement of motor disturbances ([13]; hemiplegia sequelae, 2 cases): 0; Improvement of the psychic state ([13]; hemiplegia sequelae, 2 cases): once; In vitro anti-serotonin activity on the female rat uterus in oestrus [14]: 0,07; spasmolytic activity of the papaverine type in the tests as a whole (in words) ([15]; tests as a whole): excellent spasmolytic activity; tolerance in chronic toxicity study ([9]; per os, 40 mg/kg, six months): perfectly well tolerated
3 | O=C(CN1CCN(CCOC(c2ccccc2)c2ccccc2)CC1)N1CCN(Cc2ccc3c(c2)OCO3)CC1 [Derivative 33, 1-(piperonylpiperazinocarbonylmethyl)-4-(2-benzhydryloxyethyl)piperazine trimaleate] |  | 600 mg/kg |  |  | 25 mg/kg |  |  | > 0,01 | 10,5 | greatest | 9 | 0,5 | 5 | 6 | 
